One block for each molecule: values may come before it. Ends that are not written are not given here.
Experiments:
EphA2 [1] = experiment: EphA2 tyrosine phosphorylation in HUVECs (immunoprecipitation/4G10 western blot), Src dependence; format: cell-based, human
Experimental: Confluent HUVECs were pretreated with either DMSO or PP2 for […] and then stimulated with 1 U/ml thrombin or […] Ephrin A1-FC. EphA2 was immunoprecipitated and tyrosine phosphorylation was detected by immunoblot using an anti-phophotyrosine antibody (top panel). The blot was stripped and reblotted with the EphA2 antibody for loading (bottom panel). Representative data from 3 independent experiments are shown.
Methods: Mouse EphrinA1 in a form of FC fusion was purchased from R and D Systems. Pharmacological agents PP2 was used to examine the role of Src in EphA2 phosphorylation. Confluent HUVECs were pretreated with PP2 (2 μM) or DMSO for 1 hour, followed by a 10-min treatment with sodium orthovandate (1 mM). Cells were then stimulated for 30 mins with either 1 U/ml thrombin or 250 ng/ml […]. HUVECs were lysed in RIPA buffer. Clarified lysates were immunoprecipitated with 2 μg of a polyclonal anti human EphA2 antibody (Santa Cruz) and Protein A/G Plus. Tyrosine phosphorylation and EphA2 were detected using the 4G10 and the EphA2 antibody (Santa Cruz), respectively.

[2] = system: Tie-1-induced inflammation in HUVECs; experiment: p38 inhibition study, real-time PCR in HUVECs infected with Tie-1 adenovirus; format: cell-based, human; details: 48 hours post infection
Excerpt: FIG. 28 is a graph showing that Tie-1 induced endothelial inflammation is p38 dependent.
Adenovirus construction: For adenovirus production, we chose the AdEasy adenoviral expression system due to its ease of use and ability to generate high titer virus. Coding sequence of mouse Tie-1 excluding the endogenous leader sequence was amplified from cDNA prepared from mouse lung tissue. The following expression cassette was constructed: IgK leader sequence, a Flag epitope tag sequence, and the coding region of mouse Tie-1. This cassette was subcloned into the shuttle vector pAdTrack, which contains two CMV promoters to express the gene of interest and the green fluorescent protein (GFP) independently. After homologous recombination in the E. coli strain BJ5183 (Stratagene), the recombined pAdeasy DNA (PacI-cut) was used to transfect 293A cells (Invitrogen). After several rounds of amplification, the virus was purified using the Ad-Pure Adenoviral Purification Kit (BioVintage) and tittered using 293A as the host. Immediately prior to use, the virus was desalted and buffer-exchanged into endothelial growth medium using a spin column (Pierce). Adenoviral infection: Human umbilical vein endothelial cells (HUVECs) and human aortic endothelial cells (HAECs) were purchased from Cambrex and maintained as recommended by the manufacturer. To overexpress Tie-1, 200,000 endothelial cells were plated in one well of a […]. After overnight incubation, adenovirus harboring the Tie-1 expression cassette was added to the endothelial cells at MOI of 10:1. An “empty virus” expressing only GFP was used as a control. Seventeen hours later, medium was replaced with fresh medium. Cells were maintained and processed at the desired time points for the experiments described below. […] Lysates were immunoprecipitated with an anti-Tiel antibody (Santa Cruz, SC-342). Western blotting with anti phosphotyrosine antibody (4G10, Upstate) was used to determine the phosphorylation status of Tie-1. The membrane was stripped and reblotted with the anti-Tiel antibody. A portion of the lysates was immunoprecipitated with 4G10. Tyrosine phosphorylation of Tie-1 was confirmed by western blotting with the anti-Tiel antibody using these 4G10 immunoprecipitates. Antibody array experiment: HUVECs were infected as described. Forty-eight hours later, supernatants from Tie-1 expressing or GFP expressing cells were collected. After brief centrifugation to remove cell debris, the supernatants were spun through a 0.22-μm cellulose acetate filter (Spin-X, Costar). Cytokine and chemokine contents in the conditioned media were screened using the RayBio Human Inflammation Antibody Array 3.1(RayBiotech). Real-time polymerase chain reactions (PCR)—Total RNAs from endothelial cells were isolated by the RNAeasy Mini Kit (Qiagen) and used as templates in oligo-dT primed reverse transcription using the Superscript III reverse transcriptase (Invitrogen). Real-time PCRs were performed using the QuantiTect Probe PCR Kit (Qiagen) with the 7500 Real Time PCR System (Applied Biosystems). Gene of interest and GAPDH were multiplexed for normalization as described (Dupuy et al., Exp. Cell Res. 185: 363-372., (1989)). The following real time PCR probes were purchased from Applied Biosystems and used in this study: CCL2 5′-[…]-3′(SEQ ID NO: 27); VCAM-1: 5′-[…]-3 (SEQ ID NO: 28)′; ICAM: 5′-[…]-3′(SEQ ID NO: 29); CXCL10: 5′-[…]-3′(SEQ ID NO: 30); E-selectin: 5′-[…]-3′(SEQ ID NO: 31); IL-6: 5′-[…]-3′ (SEQ ID NO: 32). ELISA—HUVECs were infected as described above. Supernatants were collected from Tie-1 expressing or GFP expressing cells 70 hours post infection. The ELISA kit for human IL-6 was purchased from R and D Systems. Western blots—Endothelial cell lysates were prepared in denaturing SDS-PAGE loading buffer, sonicated, heated at 80° C. for 5 mins, and fractionated on SDS-PAGE. […]

EphA2 [3] = experiment: EphA2 tyrosine phosphorylation in HUVECs stimulated with PAR agonistic peptides; format: cell-based, human; details: peptides at 20 μM as stimulants
Experimental: FIG. 37 is an immunoblot showing PAR-1 activates EphA2. Confluent HUVECs were stimulated with PAR agonistic peptides TFLLR-NH2 (PAR-1) (SEQ ID NO: 11), RLLFT-NH2 (negative control for PAR-1) (SEQ ID NO: 12), SLIGKV-NH2 (PAR-2) (SEQ ID NO: 13), GYPGKF-NH2 (PAR-4) (SEQ ID NO: 14), and thrombin. Tyrosine phosphorylation of EphA2 was determined by western blot.
Methods: HUVECs were prepared and stimulated as described in above except that the following peptides at 20 μM were used as stimulants: TFLLR-NH2 (PAR-1; SEQ ID NO: 11), RLLFT-NH2 (negative control for PAR-1; SEQ ID NO: 12), SLIGKV-NH2 (PAR-2; SEQ ID NO: 13), and GYPGKF-NH2 (PAR-4; SEQ ID NO: 14).

thrombin = target: T1, thrombin (Homo sapiens, UniProt P00734); experiment: In vitro thrombin activation colorimetric assay, HUVECs expressing Tie-1 endodomain with human plasma and chromogenic thrombin substrate; format: cell-based; details: hirudin 100 U/ml; HUVECs infected with Tie-1 endodomain adenovirus; absorbance at 405 nm
T1 construct: tissue Calbiochem 527420; host or cells: human plasma added to HUVEC monolayers
Experimental: HUVECs were either expressing GFP or Tie-1 endodomain. Whole human plasma supplemented with an excess chromogenic thrombin substrate (sarcosine-Pro-Arg-pNA) (Duncan, Bowie et al., Clin Chem 31: 853-855, (1985)) was added to HUVECs. Cleavage carboxyl-terminal to the arginine residue by thrombin releases […], which can be monitored by absorbance at 405 nm.
Methods: HUVECs were grown to confluency in a 12-well plate. Cells were either uninfected, infected with control GFP adenovirus, or Tie-1 endodomain adenovirus. Next day, medium was changed to fresh full EGM2-MV. 72-hr post infection, cells were washed with EBM2 basal medium (without phenol red), and 0.5 ml of assay medium [EBM2 basal medium (without phenol red)/10% human plasma (Calbiochem 527420)/200 μM chromogenic thrombin substrate (Calbiochem 539518)] was added. Hirudin (Calbiochem 377853, 100 U/ml) was added to one set of cells infected with Tie-1 endodomain. The assay was quenched by the addition of aprotinin (Sigma A1154, 5.6 U/ml). Absorbance at 405 nm was measured using a spectrophotometer and used as an indicator of thrombin activity. […]
Results: We used a colorimetric assay to determine whether expression of Tie-1 endodomain could induce activation of thrombin in vitro. […] Thrombin activation was detected by an increase in absorbance of the cleaved thrombin substrate ([…]) at 405 nm. […]

[4] = system: stenosis after balloon angioplasty; details: rabbit, rat, and pig models; cited from earlier work
ICAM-1 = experiment: Thrombin-induced ICAM-1 upregulation in HUVECs, western blot; format: cell-based, human
Excerpt: FIGS. 33A-33B show thrombin induction of ICAM-1 upregulation in HUVECs is dependent on EphA2. […] Representative data from 3 experiments are shown. FIG. 33B is a graph showing densitometric quantification of the results in […] normalized for fold increase in ICAM-1 expression. Results were reported as fold-increase in ICAM-1 expression relative to unstimulated controls. Data are mean±s.d. of three experiments; * p<0.002.
FIGS. 34A-34B show overexpression of mouse EphA2 rescues thrombin-induced ICAM-1 upregulation in HUVECs with endogenous EphA2 knocked down. […] The cells were treated with human EphA2 specific siRNA as indicated and ICAM-1 upregulation was induced using 1 U/ml thrombin for 6 hours (T). Representative data from 4 experiments are shown. […] “−” and “+” represent without or with thrombin stimulation (1 U/ml, 6 hr). Representative results from two experiments are shown.
Methods: Two validated Stealth siRNA duplexes specific to human EphA2 and a negative control duplexes were purchased from Invitrogen (EphA2 siRNA, catalog number: 12938-022, sequence: 5′-gca agg aag ugg uac ugc ugg acu u-3′ (siRNA #1, SEQ NO ID 33) and control siRNA, catalog number 12935-300, sequence: 5-ggg acc uga ugc aga aca uca uga a-3 (siRNA #2, SEQ NO ID 34)). […] ICAM-1 protein expression were detected by western blots using an anti ICAM-1 antibodies. […]

Molecule: CC(C)(C)n1nc(-c2ccc(Cl)cc2)c2c(N)ncnc21 [PP2]
tyrosine phosphorylation of EphA2 by EphrinA1, sensitivity to PP2 (EphA2 [1]; PP2 2 μM 1 hour, 250 ng/ml EphrinA1-FC 30 mins): insensitive | thrombin-induced EphA2 tyrosine phosphorylation (EphA2 [1]; PP2 2 μM 1 hour, 1 U/ml thrombin 30 mins): completely abrogated

Molecule: C[S+]([O-])c1ccc(-c2nc(-c3ccncc3)c(-c3ccc(F)cc3)[nH]2)cc1 (centres unmarked) [SB-203580]
Tie-1-induced CCL2 upregulation [2]: Significant inhibition | Tie-1-induced ICAM-1 upregulation [2]: Significant inhibition | Tie-1-induced upregulation of E-selectin mRNA [2]: almost completely blocked | Tie-1-induced upregulation of IL-6 mRNA [2]: almost completely blocked | Tie-1-induced upregulation of IP-10 mRNA [2]: almost completely blocked | Tie-1-induced upregulation of VCAM-1 mRNA [2]: almost completely blocked

Molecule: GYPGKF-NH2 [PAR-4 specific agonist]
EphA2 tyrosine phosphorylation (transactivation) in HUVECs (EphA2 [3]): failed to induce

Molecule: RLLFT-NH2
EphA2 tyrosine phosphorylation (transactivation) in HUVECs (EphA2 [3]): failed to induce

Molecule: SLIGKV-NH2 [PAR-2 specific agonist]
EphA2 tyrosine phosphorylation (transactivation) in HUVECs (EphA2 [3]): failed to induce

Molecule: TFLLR-NH2 [PAR-1 specific agonistic peptide]
EphA2 tyrosine phosphorylation (transactivation) in HUVECs (EphA2 [3]): recapitulated EphA2 transactivation

cleavage of the chromogenic thrombin substrate (thrombin): completely blocked
Molecule: hirudin
development of stenosis after balloon angioplasty [4]: reduces

Molecule: soluble EphA2: soluble EphA2 added in excess during thrombin stimulation
ICAM-1 expression induced by thrombin, block by co-incubation (ICAM-1; soluble EphA2 at concentrations up to 1 μg/ml, thrombin 1 U/ml, 6 hr): failed to block

B1: EphrinA1-FC: Mouse EphrinA1 in a form of FC fusion, R and D Systems (protein)
chain: DRHIVFWNSSNPKFREEDYTVHVQLNDYLDIICPHYEDDSVADAAMERYTLYMVEHQEYVACQPQSKDQVRWNCNRPSAKHGPEKLSEKFQRFTPFILGKEFKEGHSYYYISKPIYHQESQCLKLKVTVNGKITHNPQAHVNPQEKRLQADDPEVQVLHSIGYS
modifications: left off: a dimerising Fc or GST
notes: Mouse EphrinA1 in a form of FC fusion, R and D Systems
activation of EphA2 in endothelial cells (EphA2 [1]; FC-fusion protein, 250 ng/ml, 30 mins): induced significant activation | stimulation of ICAM-1 expression (ICAM-1; EphrinA1-FC up to 10 μg/ml, no thrombin): did not stimulate

— patent publication US20130273057A1, “METHODS AND COMPOSITIONS FOR THE TREATMENT AND DIAGNOSIS OF VASCULAR INFLAMMATORY DISORDERS OR ENDOTHELIAL CELL DISORDERS” (Beth Israel Deaconess Medical Center, Inc., priority 2007, published 2013)
